Experimental data as given in patent US8871753B2, “Macrocyclic compounds and their use as kinase inhibitors” (Incyte Corporation, priority 2008, dated 2014).
Structures can show the parent of a compound that is named as a salt. Where two headings read alike, the source gives them in different places.

Columns and labels:
Assay type in all cases: biochemical
[1] = biological target: T1, human JAK1 (a.a. 837-1142) (Homo sapiens, UniProt P23458); test: In vitro JAK kinase assay (HTRF, phosphorylation of a biotinylated peptide), JAK1; conditions: read-out: JAK1 IC50
T1 construct: human JAK1 (a.a. 837-1142); His tag (N); made in house; host or cells: insect cells (baculovirus)
In short: (§1)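 Phosphorylation of a biotinylated peptide by the JAK kinase domain, detected by HTRF with Eu-Py20 and SA-APC. ATP was 90 μM for JAK1, 30 μM for JAK2 and 3 μM for JAK3. Reactions ran 1 h at room temperature and were stopped with EDTA, followed by 40 min antibody binding.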

[2] = biological target: T2, human JAK2 (a.a. 828-1132) (Homo sapiens, UniProt O60674); test: In vitro JAK kinase assay (HTRF, phosphorylation of a biotinylated peptide), JAK2
T2 construct: JAK2 (a.a. 828-1132); His tag (N); made in house; host or cells: insect cells (baculovirus)
In short: as §1

[3] = biological target: T3, human JAK3 (a.a. 781-1124) (Homo sapiens, UniProt P52333); test: In vitro JAK kinase assay (HTRF, phosphorylation of a biotinylated peptide), JAK3
T3 construct: JAK3 (a.a. 781-1124); His tag (N); made in house; host or cells: insect cells (baculovirus)
In short: as §1

TYK2 = TYK2 (Homo sapiens, UniProt P29597); test: TYK2 kinase inhibition (Table A1)
[4] = biological target: T4, Recombinant Human Anaplastic Lymphoma Kinase (Homo sapiens, UniProt Q9UM73); test: ALK HTRF kinase assay
T4 construct: purchased Invitrogen, Carlsbad, Calif
In short: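 TR-FRET read-out (Eu anti-pTyr antibody + streptavidin-APC) of biotin-peptide phosphorylation by recombinant human enzyme; IC50 by sigmoidal fit with top/bottom baselines and Hill slope.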

[5] = compound at a concentration of 500 nM or 1 mM (not specified), cells shown as percentage
[6] = method AA1 (90 μM ATP) or AA2 (1000 μM ATP), not stated per value
[7] = method AA1 (30 μM ATP) or AA2 (1000 μM ATP), not stated per value
[8] = method AA1 (3 μM ATP) or AA2 (1000 μM ATP), not stated per value
[9] = compound at 500 nM or 1 mM, 90 μM ATP

T4 sequence (Q9UM73 19-1620): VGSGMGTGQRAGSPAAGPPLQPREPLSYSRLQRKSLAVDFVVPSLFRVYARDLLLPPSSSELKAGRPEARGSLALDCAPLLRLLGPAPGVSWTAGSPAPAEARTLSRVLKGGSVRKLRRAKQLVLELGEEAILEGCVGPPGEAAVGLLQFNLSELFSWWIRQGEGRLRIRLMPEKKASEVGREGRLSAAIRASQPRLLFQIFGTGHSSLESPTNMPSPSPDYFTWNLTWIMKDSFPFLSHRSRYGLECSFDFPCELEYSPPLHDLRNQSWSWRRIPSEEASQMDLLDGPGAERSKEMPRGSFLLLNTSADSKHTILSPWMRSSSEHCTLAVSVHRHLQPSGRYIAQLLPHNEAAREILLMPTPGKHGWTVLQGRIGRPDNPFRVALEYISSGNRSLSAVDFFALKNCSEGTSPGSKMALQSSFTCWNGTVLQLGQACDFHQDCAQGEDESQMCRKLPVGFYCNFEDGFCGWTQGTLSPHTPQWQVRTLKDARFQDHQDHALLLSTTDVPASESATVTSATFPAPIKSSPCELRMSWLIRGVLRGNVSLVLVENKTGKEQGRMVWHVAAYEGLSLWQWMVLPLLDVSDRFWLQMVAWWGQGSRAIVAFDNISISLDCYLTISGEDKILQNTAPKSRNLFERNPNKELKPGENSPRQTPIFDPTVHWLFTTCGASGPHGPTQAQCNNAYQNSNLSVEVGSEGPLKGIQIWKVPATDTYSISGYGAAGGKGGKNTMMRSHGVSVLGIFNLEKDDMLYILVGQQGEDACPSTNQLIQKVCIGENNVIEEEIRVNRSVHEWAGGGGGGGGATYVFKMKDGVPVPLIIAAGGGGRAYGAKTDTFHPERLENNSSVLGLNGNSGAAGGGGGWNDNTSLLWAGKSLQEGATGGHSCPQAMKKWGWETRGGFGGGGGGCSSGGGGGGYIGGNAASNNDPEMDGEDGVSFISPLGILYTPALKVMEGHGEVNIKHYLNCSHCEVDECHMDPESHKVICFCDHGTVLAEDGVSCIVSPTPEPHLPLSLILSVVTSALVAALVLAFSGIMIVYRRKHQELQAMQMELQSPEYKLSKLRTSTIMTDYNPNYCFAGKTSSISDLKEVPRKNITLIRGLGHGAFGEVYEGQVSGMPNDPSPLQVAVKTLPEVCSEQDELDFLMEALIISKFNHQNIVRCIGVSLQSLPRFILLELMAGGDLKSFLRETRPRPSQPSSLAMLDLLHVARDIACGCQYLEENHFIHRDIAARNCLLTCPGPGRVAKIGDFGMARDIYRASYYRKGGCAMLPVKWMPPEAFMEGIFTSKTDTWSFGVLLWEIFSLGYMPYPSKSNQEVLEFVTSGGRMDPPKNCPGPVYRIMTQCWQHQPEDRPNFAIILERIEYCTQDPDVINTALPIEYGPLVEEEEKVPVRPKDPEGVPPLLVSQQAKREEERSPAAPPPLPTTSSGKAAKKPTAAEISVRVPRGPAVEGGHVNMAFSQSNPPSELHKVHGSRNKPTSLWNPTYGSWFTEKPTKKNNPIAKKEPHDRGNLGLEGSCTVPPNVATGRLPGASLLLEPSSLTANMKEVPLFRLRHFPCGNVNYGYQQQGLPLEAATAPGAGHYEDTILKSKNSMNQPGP
T3 sequence (P52333 781-1124): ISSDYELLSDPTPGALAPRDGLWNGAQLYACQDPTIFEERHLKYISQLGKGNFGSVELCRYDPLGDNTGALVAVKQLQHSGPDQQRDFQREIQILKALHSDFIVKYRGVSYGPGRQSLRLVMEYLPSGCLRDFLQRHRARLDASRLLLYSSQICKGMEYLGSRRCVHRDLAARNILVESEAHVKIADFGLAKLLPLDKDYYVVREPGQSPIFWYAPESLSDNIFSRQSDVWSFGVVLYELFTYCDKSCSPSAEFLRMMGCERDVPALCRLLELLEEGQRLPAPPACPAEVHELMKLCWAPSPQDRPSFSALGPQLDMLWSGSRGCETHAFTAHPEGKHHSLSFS
T2 sequence (O60674 828-1132): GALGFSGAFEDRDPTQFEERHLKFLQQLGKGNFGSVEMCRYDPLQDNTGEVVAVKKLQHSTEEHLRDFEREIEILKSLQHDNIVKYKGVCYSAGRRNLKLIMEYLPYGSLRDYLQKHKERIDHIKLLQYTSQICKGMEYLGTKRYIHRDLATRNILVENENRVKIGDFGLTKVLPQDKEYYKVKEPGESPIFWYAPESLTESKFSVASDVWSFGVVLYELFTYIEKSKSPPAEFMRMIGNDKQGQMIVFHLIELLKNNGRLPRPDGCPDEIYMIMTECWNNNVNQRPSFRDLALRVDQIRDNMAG
Chain of TYK2 (P29597 whole entry): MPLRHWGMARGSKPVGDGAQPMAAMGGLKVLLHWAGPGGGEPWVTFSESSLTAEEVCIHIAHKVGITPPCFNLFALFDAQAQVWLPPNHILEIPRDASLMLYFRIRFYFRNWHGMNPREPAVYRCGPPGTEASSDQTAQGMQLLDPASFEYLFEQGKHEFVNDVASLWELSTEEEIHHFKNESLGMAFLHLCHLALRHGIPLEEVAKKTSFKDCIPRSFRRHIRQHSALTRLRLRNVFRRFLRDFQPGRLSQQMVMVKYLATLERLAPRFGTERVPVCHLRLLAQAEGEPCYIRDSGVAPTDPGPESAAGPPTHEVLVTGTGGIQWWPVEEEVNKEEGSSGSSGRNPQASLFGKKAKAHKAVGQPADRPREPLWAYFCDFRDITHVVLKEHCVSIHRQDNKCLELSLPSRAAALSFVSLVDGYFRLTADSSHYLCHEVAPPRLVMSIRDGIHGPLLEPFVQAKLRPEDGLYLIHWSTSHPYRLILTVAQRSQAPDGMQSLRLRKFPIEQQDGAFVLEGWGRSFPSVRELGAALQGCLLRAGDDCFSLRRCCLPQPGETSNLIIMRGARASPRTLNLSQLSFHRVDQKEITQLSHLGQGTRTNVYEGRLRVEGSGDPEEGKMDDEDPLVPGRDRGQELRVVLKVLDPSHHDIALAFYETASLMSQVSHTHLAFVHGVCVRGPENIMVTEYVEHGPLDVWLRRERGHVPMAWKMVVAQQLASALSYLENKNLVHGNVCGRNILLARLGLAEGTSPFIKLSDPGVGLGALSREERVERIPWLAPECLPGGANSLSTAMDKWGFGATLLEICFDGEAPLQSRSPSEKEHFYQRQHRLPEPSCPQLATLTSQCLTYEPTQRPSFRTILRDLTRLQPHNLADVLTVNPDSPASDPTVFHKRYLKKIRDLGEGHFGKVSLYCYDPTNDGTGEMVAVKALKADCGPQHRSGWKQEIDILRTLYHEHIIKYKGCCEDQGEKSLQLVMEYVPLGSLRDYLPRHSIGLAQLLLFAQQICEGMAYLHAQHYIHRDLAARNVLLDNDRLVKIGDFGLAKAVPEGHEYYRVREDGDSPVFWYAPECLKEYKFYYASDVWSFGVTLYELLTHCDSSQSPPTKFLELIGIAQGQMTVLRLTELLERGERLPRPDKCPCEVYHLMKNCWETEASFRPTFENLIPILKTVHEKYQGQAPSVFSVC
T1 sequence (P23458 849-1154): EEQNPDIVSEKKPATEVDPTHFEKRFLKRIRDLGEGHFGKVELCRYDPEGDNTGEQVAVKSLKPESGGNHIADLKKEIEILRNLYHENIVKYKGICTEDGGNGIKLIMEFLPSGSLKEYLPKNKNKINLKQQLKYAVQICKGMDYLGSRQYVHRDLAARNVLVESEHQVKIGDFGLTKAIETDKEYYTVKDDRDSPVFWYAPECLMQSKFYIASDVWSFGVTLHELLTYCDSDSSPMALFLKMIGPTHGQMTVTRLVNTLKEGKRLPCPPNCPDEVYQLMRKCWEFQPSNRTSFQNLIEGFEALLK

IC50 ([1]; Table B1) | IC50 ([2]; Table B1) | IC50 ([3]; Table B1) | IC50 (TYK2; Table B1) | IC50 [1, 6] | IC50 [2, 7] | IC50 [3, 8] | IC50 (TYK2) | ALK % of inhibition at a concentration of 500 nM or 1 mM [4, 9] | further results | Structure (SMILES)
– | – | – | – | – | – | – | – | – | IC50 ([1]; Table D1): 4.7 nM; IC50 ([2]; Table D1): 0.9 nM; IC50 ([3]; Table D1): 21 nM; IC50 (TYK2; Table D1): 8.2 nM; IC50 ([4]; Table D1, 90 μM ATP): 390 nM | O=C(NC1CCCC1)N1CCN(c2cc(-c3cc4cc(c3)Nc3ncc(Cl)c(n3)Nc3cccc(c3)OCC4)ccn2)CC1 [Example D46, 4-{4-[6-Chloro-14-oxa-2,4,8,23-tetraazatetracyclo[15.3.1.1(3,7).1(9,13)]tricosa-1(21),3(23),4,6,9(22),10,12,17,19-nonaen-19-yl]pyridin-2-yl}-N-cyclopentylpiperazine-1-carboxamide bis(trifluoroacetate)]
0.23 nM | 0.84 nM | 1.3 nM | 2.8 nM | – | – | – | – | – | ALK % of inhibition at a concentration of 500 nM or 1 mM [4, 5]: 43% | NS(=O)(=O)N1CC[C@@H](NC(=O)Nc2ccc3cc2CCc2cccc(c2)Nc2ncc(Cl)c(n2)N3)C1 [Example B179, (3R)-3-[({[6-Chloro-2,4,8,22-tetraazatetracyclo[14.3.1.1(3,7).1(9,13)]docosa-1(20),3(22),4,6,9(21),10,12,16,18-nonaen-12-yl]amino}carbonyl)amino]pyrrolidine-1-sulfonamide trifluoroacetate]
15 nM | 90 nM | > 200 nM | > 200 nM | – | – | – | – | – | ALK % of inhibition at a concentration of 500 nM or 1 mM [4, 5]: 46% | O=C(Nc1ccc2cc1CCc1cncc(c1)Nc1ncc(Cl)c(n1)N2)N1CCN(Cc2ccccc2)CC1 [Example B287, 4-Benzyl-N-[6-chloro-2,4,8,18,22-pentaazatetracyclo[14.3.1.1(3,7).1(9,13)]docosa-1(20),3(22),4,6,9(21),10,12,16,18-nonaen-12-yl]piperazine-1-carboxamidetris(trifluoroacetate)]
1 nM | 29 nM | 245 nM | 33 nM | – | – | – | – | – | ALK % of inhibition at a concentration of 500 nM or 1 mM [4, 5]: 25% | O=C(Nc1ccc2cc1CCc1cncc(c1)Nc1ncc(Cl)c(n1)N2)N[C@H]1CCN(C(=O)c2ccccc2)C1 [Example B227, N-[(3S)-1-benzoylpyrrolidin-3-yl]-N′-[6-chloro-2,4,8,18,22-pentaazatetracyclo[14.3.1.1(3,7).1(9,13)]docosa-1(20),3(22),4,6,9(21),10,12,16,18-nonaen-12-yl]urea bis(trifluoroacetate)]
0.7 nM | 1.5 nM | 9.5 nM | 3.2 nM | – | – | – | – | – | IC50 ([4]; Table B1, cells without percent sign): 180 nM | Cc1ccc(C(=O)Nc2ccc3cc2CCc2cccc(c2)Nc2ncc(Cl)c(n2)N3)cc1 [Example B47, N-[6-Chloro-2,4,8,22-tetraazatetracyclo[14.3.1.1(3,7).1(9,13)]docosa-1(20), 3(22),4,6,9(21),10,12,16,18-nonaen-12-yl]-4-methylbenzamide trifluoroacetate]
– | – | – | – | 0.5 nM | 1.9 nM | 46 nM | 3.6 nM | 33% | – | CS(=O)(=O)N1CCC(CC(=O)Nc2ccc3cc2CCc2cncc(c2)Nc2ncc(Cl)c(n2)N3)CC1 [Example A79, N-[6-Chloro-2,4,8,18,22-pentaazatetracyclo[14.3.1.1(3,7).1(9,13)]docosa-1(20),3(22),4,6,9(21),10,12,16,18-nonaen-12-yl]-2-[1-(methylsulfonyl)piperidin-4-yl]acetamide bis(trifluoroacetate)]
– | – | – | – | – | – | – | – | – | IC50 ([1]; Table D1): 11 nM; IC50 ([2]; Table D1): 18 nM; IC50 ([3]; Table D1): 117 nM; IC50 (TYK2; Table D1): 13 nM; IC50 ([4]; Table D1, 90 μM ATP): 2050 nM | O=C1CCc2cccc(c2)Nc2nc(ncc2Cl)Nc2cccc(c2)N1 [Example D76, 6-Chloro-2,4,8,17,24-pentaazatetracyclo[16.3.1.1(3,7).1(9,13)]tetracosa-1(22),3(24),4,6,9(23),10,12,18,20-nonaen-16-one trifluoroacetate]
– | – | – | – | 10 nM | 21 nM | 156 nM | 15 nM | 24% | – | CC(C)C(=O)N1CCC(CC(=O)Nc2ccc3cc2CCc2cncc(c2)Nc2ncc(Cl)c(n2)N3)CC1 [Example A103, N-[6-Chloro-2,4,8,18,22-pentaazatetracyclo[14.3.1.1(3,7).1(9,13)]docosa-1(20),3(22),4,6,9(21),10,12,16,18-nonaen-12-yl]-2-(1-isobutyrylpiperidin-4-yl)acetamide bis(trifluoroacetate)]
– | – | – | – | 11 nM | 244 nM | > 10000 nM | 675 nM | 18% | – | O=C(CC1CCN(c2nc3cccnc3o2)CC1)Nc1ccc2cc1CCc1cncc(c1)Nc1ncc(Cl)c(n1)N2 [Example A158, N-[6-Chloro-2,4,8,18,22-pentaazatetracyclo[14.3.1.1(3,7).1(9,13)]docosa-1(20),3(22),4,6,9(21),10,12,16,18-nonaen-12-yl]-2-(1-[1,3]oxazolo[5,4-b]pyridin-2-ylpiperidin-4-yl)acetamide tris(trifluoroacetate)]
– | – | – | – | 87 nM | 54 nM | 45 nM | > 100 nM | – | IC50 ([4]; 90 μM ATP): 925 nM | Clc1cnc2nc1Nc1cccc(c1)CCCc1cccc(c1)N2 [Example A4, 6-Chloro-2,4,8,23-tetraazatetracyclo[15.3.1.1(3,7).1(9,13)]tricosa-1(21),3(23),4,6,9(22),10,12,17,19-nonaene]
14 nM | 141 nM | 85 nM | 15 nM | – | – | – | – | – | ALK % of inhibition at a concentration of 500 nM or 1 mM [4, 5]: 23% | Cc1cc(C(=O)N2CC[C@H](NC(=O)Nc3ccc4cc3CCc3cncc(c3)Nc3ncc(Cl)c(n3)N4)C2)no1 [Example B265, N-[6-Chloro-2,4,8,18,22-pentaazatetracyclo[14.3.1.1(3,7).1(9,13)]docosa-1(20),3(22),4,6,9(21),10,12,16,18-nonaen-12-yl]-N′-{(3S)-1-[(5-methylisoxazol-3-yl)carbonyl]pyrrolidin-3-yl}urea bis(trifluoroacetate)]
– | – | – | – | 2.6 nM | 102 nM | > 10000 nM | 617 nM | 15% | – | O=C(CC1CCN(c2nc3ccccc3s2)CC1)Nc1ccc2cc1CCc1cncc(c1)Nc1ncc(Cl)c(n1)N2 [Example A157, 2-[1-(1,3-Benzothiazol-2-yl)piperidin-4-yl]-N-[6-chloro-2,4,8,18,22-pentaazatetracyclo[14.3.1.1(3,7).1(9,13)]docosa-1(20),3(22),4,6,9(21),10,12,16,18-nonaen-12-yl]acetamide tris(trifluoroacetate)]
– | – | – | – | 28 nM | 45 nM | 110 nM | 84 nM | 34% | – | O=C(Nc1ccc2cc1CCc1cccc(c1)Nc1ncc(Cl)c(n1)N2)C1CCN(C(=O)c2ccccc2)CC1 [Example A30, 1-Benzoyl-N-[6-chloro-2,4,8,22-tetraazatetracyclo[14.3.1.1(3,7).1(9,13)]docosa-1(20),3(22),4,6,9(21),10,12,16,18-nonaen-12-yl]piperidine-4-carboxamide trifluoroacetate]
– | – | – | – | 31 nM | 6.5 nM | 14 nM | 22 nM | 28% | – | CCOC(=O)CNC(=O)N1CCC(C(=O)Nc2ccc3cc2CCc2cccc(c2)Nc2ncc(Cl)c(n2)N3)CC1 [Example A60, Ethyl ({[4-({[6-chloro-2,4,8,22-tetraazatetracyclo[14.3.1.1(3,7).1(9,13)]docosa-1(20),3(22),4,6,9(21),10,12,16,18-nonaen-12-yl]amino}carbonyl)piperidin-1-yl]carbonyl}amino)acetate trifluoroacetate]
